Test results reported in patent US10435415B2, “Substituted tetrahydrocarbazole and carbazole carboxamide compounds” (BRISTOL-MYERS SQUIBB COMPANY, priority 2013, dated 2019).
Where two headings read alike, the source gives them in different places.

Key:
human recombinant Btk = human recombinant Btk (Homo sapiens (Human), UniProt Q06187); test: Human Recombinant Btk Enzyme Assay; format: biochemical
[1] = tested on: BCR-stimulated CD69 expression on B cells in human whole blood; test: Whole Blood Assay of BCR-Stimulated CD69 Expression on B Cells; format: cell-based
Jak2 tyrosine kinase = Jak2 tyrosine kinase (Homo sapiens (Human), UniProt O60674); test: Jak2 Tyrosine Kinase Assay; format: biochemical; details: selectivity of Btk over Jak2
Jak2 tyrosine kinase, sequence (O60674 whole entry): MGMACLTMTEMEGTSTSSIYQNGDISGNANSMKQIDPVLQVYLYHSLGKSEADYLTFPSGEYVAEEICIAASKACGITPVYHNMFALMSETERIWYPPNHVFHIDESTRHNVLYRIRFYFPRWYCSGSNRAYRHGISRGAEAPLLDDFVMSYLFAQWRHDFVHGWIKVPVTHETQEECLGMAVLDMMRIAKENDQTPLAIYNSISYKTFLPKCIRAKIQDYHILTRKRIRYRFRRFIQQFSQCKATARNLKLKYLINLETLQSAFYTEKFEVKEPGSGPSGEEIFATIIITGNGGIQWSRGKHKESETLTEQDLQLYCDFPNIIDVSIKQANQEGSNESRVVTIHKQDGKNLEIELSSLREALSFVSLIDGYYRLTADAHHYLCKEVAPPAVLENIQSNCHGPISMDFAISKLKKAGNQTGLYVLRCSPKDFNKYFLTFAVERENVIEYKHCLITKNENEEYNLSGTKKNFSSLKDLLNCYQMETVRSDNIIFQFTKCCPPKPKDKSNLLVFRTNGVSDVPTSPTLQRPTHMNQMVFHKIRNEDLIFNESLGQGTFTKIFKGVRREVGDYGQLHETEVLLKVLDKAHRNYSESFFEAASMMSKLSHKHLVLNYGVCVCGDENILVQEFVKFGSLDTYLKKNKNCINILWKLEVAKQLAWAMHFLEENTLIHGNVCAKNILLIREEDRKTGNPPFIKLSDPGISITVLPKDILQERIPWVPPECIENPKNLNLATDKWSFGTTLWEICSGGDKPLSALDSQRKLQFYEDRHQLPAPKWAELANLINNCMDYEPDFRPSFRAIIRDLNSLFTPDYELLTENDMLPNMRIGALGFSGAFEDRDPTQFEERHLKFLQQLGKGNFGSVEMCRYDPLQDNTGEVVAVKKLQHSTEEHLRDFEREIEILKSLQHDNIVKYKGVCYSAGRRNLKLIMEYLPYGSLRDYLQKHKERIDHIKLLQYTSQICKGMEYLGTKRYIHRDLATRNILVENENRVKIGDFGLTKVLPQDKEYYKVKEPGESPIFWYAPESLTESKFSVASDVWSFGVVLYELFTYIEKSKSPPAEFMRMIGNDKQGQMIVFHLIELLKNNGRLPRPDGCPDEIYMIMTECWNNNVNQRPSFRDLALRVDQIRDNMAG

human recombinant Btk, sequence (Q06187 whole entry): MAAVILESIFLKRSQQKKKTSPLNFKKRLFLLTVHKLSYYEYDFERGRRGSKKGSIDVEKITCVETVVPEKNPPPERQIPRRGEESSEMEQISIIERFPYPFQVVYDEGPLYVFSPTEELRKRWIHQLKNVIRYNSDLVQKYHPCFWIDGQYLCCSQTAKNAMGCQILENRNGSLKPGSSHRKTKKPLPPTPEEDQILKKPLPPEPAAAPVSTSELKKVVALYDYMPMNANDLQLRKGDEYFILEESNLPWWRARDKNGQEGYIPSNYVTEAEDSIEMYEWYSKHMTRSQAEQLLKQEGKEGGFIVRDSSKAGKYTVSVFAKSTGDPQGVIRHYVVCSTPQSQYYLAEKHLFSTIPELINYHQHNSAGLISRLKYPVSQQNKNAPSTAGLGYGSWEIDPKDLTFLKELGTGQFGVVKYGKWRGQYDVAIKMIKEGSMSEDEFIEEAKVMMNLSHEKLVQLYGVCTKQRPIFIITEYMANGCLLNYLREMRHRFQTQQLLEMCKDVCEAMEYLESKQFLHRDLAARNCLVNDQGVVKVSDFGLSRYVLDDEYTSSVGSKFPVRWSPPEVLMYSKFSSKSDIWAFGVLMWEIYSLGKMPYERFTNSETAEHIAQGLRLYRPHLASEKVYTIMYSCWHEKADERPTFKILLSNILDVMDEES

Molecule | Ratio of Jak2/Btk IC50 values (Jak2 tyrosine kinase) | other results
3-Chloro-4-(R)-(2-chloro-3-(8-fluoro-1-methyl-2,4-dioxo-1,2-dihydroquinazolin-3(4H)-yl)phenyl)-7-(2-hydroxypropan-2-yl)-9H-carbazole-1-carboxamide [Example 45] | – | IC50 (human recombinant Btk): 0.45 nM; IC50 [1]: 68 nM
Cc1c(-c2c(Cl)cc(C(N)=O)c3[nH]c4cc(C(C)(C)O)ccc4c23)cccc1-n1c(=O)[nH]c2c(F)cc(F)cc2c1=O (single isomer, unassigned) [Example 48] | 3300 | –
Cc1c(-c2c(F)cc(C(N)=O)c3[nH]c4cc(C(C)(C)O)ccc4c23)cccc1-n1c(=O)[nH]c2c(F)cc(F)cc2c1=O (single isomer, unassigned) [Example 50] | 3800 | –
Cc1c(-c2c(F)cc(C(N)=O)c3[nH]c4cc(C(C)(C)O)ccc4c23)cccc1-n1c(=O)[nH]c2cc(F)ccc2c1=O (single isomer, unassigned) [Example 51] | >6700 | –
Cc1c(-c2c(F)cc(C(N)=O)c3[nH]c4c(c23)CC[C@H](C(C)(C)O)C4)cccc1-n1c(=O)[nH]c2c(F)cccc2c1=O (single isomer, unassigned) [Example 59] | – | IC50 [1]: 260 nM
Cc1c(-c2c(F)cc(C(N)=O)c3[nH]c4cc(C(C)(C)O)ccc4c23)cccc1-n1c(=O)[nH]c2c(F)cc(F)cc2c1=O [Example 49] | >2600 | –

Further lines, with some results ahead:

Ratio of Jak2/Btk IC50 values (Jak2 tyrosine kinase) | Molecule | other results
3400 | Cc1c(-c2c(F)cc(C(N)=O)c3[nH]c4cc(C(C)(C)O)ccc4c23)cccc1-n1c(=O)[nH]c2c(Cl)cccc2c1=O (single isomer, unassigned) [Example 54] | IC50 ([1]; Homo sapiens, B-cell): 10 nM
1600 | Cc1c(-c2c(C#N)cc(C(N)=O)c3[nH]c4cc(C(C)(C)O)ccc4c23)cccc1-n1c(=O)cc2c(Cl)cccn2c1=O (single isomer, unassigned) [Example 72] | –
2200 | Cc1c(-c2c(F)cc(C(N)=O)c3[nH]c4cc(C(C)(C)O)ccc4c23)cccc1-n1c(=O)[nH]c2c(F)cc(F)cc2c1=O (single isomer, unassigned) [Example 73] | –
